Experimental data published in patent US9464082B2, “Aryl and arylalkyl substituted pyrazolyl and pyrimidinyl tricyclic enones as antioxidant inflammation modulators” (AbbVie Inc., priority 2014, dated 2016).

System: IFNγ-Induced NO Production
Experiment: Nitric Oxide Suppression Assay (Suppression of IFNγ-Induced NO Production)
Type: cell-based
Details: RAW264.7; RAW 264.7 mouse macrophage cells; 2 hour pre-treatment with compound (3 μM to 0.3 nM, 10 point curve); 20 ng/mL interferon gamma, ~18 hour; Griess detection; n=2-3 in duplicates
Method: RAW 264.7, a mouse macrophage cell line, was obtained from American Type Culture Collection (Manassas Va.) and maintained in the log phase of growth in Dulbecco's Modified Eagle's Medium (DMEM), 10% heat inactivated fetal calf serum and 100 units/mL antibiotic-antimycotic (AA). Cells were cultured and maintained in a humidified incubator at 37° C. under 5% CO2 and 95% air. Cells were sub-cultured every 3 days by scraping and were not used beyond passage 20. All cell culture supplies were obtained from Life Technologies (Grand Island, N.Y.).
RAW 264.7 cells were plated 1 day in advance of experiment at a concentration of 80,000 cells/well onto CellBIND® 96 well plates (Corning, N.Y.) in a total volume of 100 μL. The next day, pre-treat cells with compounds (from 3 μM to 0.3 nM serially diluted in a 10 point curve) from a 10× stock by adding 10 μL per well in complete DMEM media containing 10% fetal calf serum. The plates were centrifuged for 3 minutes at 400×g at room temperature followed by 2 hour incubation at 37° C. The cells were then incubated overnight at 37° C. with 10 μL of the insult, interferon gamma (R&D Systems, Minneapolis, Minn.), from a 10× stock for a final concentration of 20 ng/mL. The plates were centrifuged for 3 minutes at 400×g at room temperature followed by ˜18 hour incubation at 37° C. The following day, transfer 50 μL cell culture supernatant from each well into a clear bottom 96 well plate and follow the instructions from Promega's Griess Detection Kit #G2930 (Madison, Wis.) which involves the addition of 50 μL of the provided sulfanilamide solution for a 5-10 minute incubation at room temperature. Next add 50 μL of the provided N-1-napthylethylenediamine dihydrochloride (NED) solution for a 5-10 minute incubation at room temperature and protected from light. If any air bubbles were introduced into the well, the plates need to be centrifuged for 5 minutes at 400×g at room temperature to avoid interference with absorbance readings. The plates were read for absorbance within 30 minutes with a filter between 520 nm and 550 nm.
For the ability of compounds to suppress the increase in nitric oxide release, the percent maximal intensity of nitric oxide detected in each well was normalized to that induced by the peak value for 20 ng/mL of interferon gamma alone and plotted against the compound concentration to calculate IC50 values and to control for plate-to-plate variability. Concentration-response data were analyzed using GraphPad Prism (San Diego, Calif.); the IC50 values were derived from a single curve fit to the mean data of n=2-3, in duplicates.
All compounds were dissolved in dimethyl sulfoxide at 10 mM stock solutions and tested at a concentration that the dimethyl sulfoxide levels never exceeded 1%.

C[C@@H]1C(=O)C(C#N)=C[C@]2(c3cccc(F)c3)c3n[nH]cc3CC[C@@H]12 [Example 53, (5aS,6S,9aR)-9a-(3-fluorophenyl)-6-methyl-7-oxo-4,5,5a,6,7,9a-hexahydro-2H-benzo[g]indazole-8-carbonitrile] showed an IC50 of 0.0317 µM.
C[C@@H]1C(=O)C(C#N)=C[C@]2(c3ccccc3)c3n[nH]c(-c4cncc(CO)c4)c3CC[C@@H]12 [Example 126, (5aS,6S,9aR)-3-[5-(hydroxymethyl)pyridin-3-yl]-6-methyl-7-oxo-9a-phenyl-4,5,5a,6,7,9a-hexahydro-2H-benzo[g]indazole-8-carbonitrile] gave an IC50 of 0.00967 µM.
With C[C@@H]1C(=O)C(C#N)=C[C@]2(c3ccccc3)c3nc(-c4cccnc4)ncc3CC[C@@H]12 [Example 11, (6aS,7S,10aR)-7-methyl-8-oxo-10a-phenyl-2-(pyridin-3-yl)-5,6,6a,7,8,10a-hexahydrobenzo[h]quinazoline-9-carbonitrile] the IC50 was 0.00603 µM.
With COc1nc(Nc2ccccc2)nc2c1CC[C@H]1[C@H](C)C(=O)C(C#N)=C[C@]21c1ccccc1 [Example 14, (6aS,7S,10aR)-2-anilino-4-methoxy-7-methyl-8-oxo-10a-phenyl-5,6,6a,7,8,10a-hexahydrobenzo[h]quinazoline-9-carbonitrile] the IC50 was 0.0114 µM.
Work on C[C@@H]1C(=O)C(C#N)=C[C@]2(c3cccc(F)c3)c3n[nH]c(-c4cccc(CCCO)c4)c3CCC12 (stereo partly drawn) [Example 78, (6S,9aR)-9a-(3-fluorophenyl)-3-[3-(3-hydroxypropyl)phenyl]-6-methyl-7-oxo-4,5,5a,6,7,9a-hexahydro-2H-benzo[g]indazole-8-carbonitrile] yielded an IC50 of 0.0218 µM.
C[C@@H]1C(=O)C(C#N)=C[C@]2(c3ccccc3)c3nn(C(=O)c4ccccc4)cc3CC[C@@H]12 [Example 38, (5aS,6S,9aR)-2-benzoyl-6-methyl-7-oxo-9a-phenyl-4,5,5a,6,7,9a-hexahydro-2H-benzo[g]indazole-8-carbonitrile] was tested, and the IC50 was 0.0752 µM.
Cc1nc(-c2ccc(-c3cncn3C)cc2)c2c(n1)[C@@]1(c3ccccc3)C=C(C#N)C(=O)[C@@H](C)[C@@H]1CC2 [Example 139, (6aS,7S,10aR)-2,7-dimethyl-4-[4-(1-methyl-1H-imidazol-5-yl)phenyl]-8-oxo-10a-phenyl-5,6,6a,7,8,10a-hexahydrobenzo[h]quinazoline-9-carbonitrile] was tested, and the IC50 was 0.019 µM.
For Cc1nc(-c2cccc(-c3ccc(C(N)=O)cc3)c2)c2c(n1)[C@@]1(c3ccccc3)C=C(C#N)C(=O)[C@@H](C)[C@@H]1CC2 [Example 135, 3′-[(6aS,7S,10aR)-9-cyano-2,7-dimethyl-8-oxo-10a-phenyl-5,6,6a,7,8,10a-hexahydrobenzo[h]quinazolin-4-yl]biphenyl-4-carboxamide], the IC50 was 0.00822 µM.
C[C@@H]1C(=O)C(C#N)=C[C@]2(c3ccccc3)c3c(cnn3Cc3ccccc3)CC[C@@H]12 (single isomer, unassigned) [Example 57] gave an IC50 of 0.022 µM.
With Cc1nc(-c2cccc(-c3ccc(O)cc3)c2)c2c(n1)[C@@]1(c3ccccc3)C=C(C#N)C(=O)[C@@H](C)[C@@H]1CC2 [Example 119, (6aS,7S,10aR)-4-(4′-hydroxybiphenyl-3-yl)-2,7-dimethyl-8-oxo-10a-phenyl-5,6,6a,7,8,10a-hexahydrobenzo[h]quinazoline-9-carbonitrile] the IC50 was 0.0065 µM.
With C[C@@H]1C(=O)C(C#N)=C[C@]2(c3ccc(C(=O)O)cc3)c3ncncc3CC[C@@H]12 [Example 66, 4-[(6aS,7S,10aR)-9-cyano-7-methyl-8-oxo-6,6a,7,8-tetrahydrobenzo[h]quinazolin-10a(5H)-yl]benzoic acid] the IC50 was 0.809 µM.
C[C@@H]1C(=O)C(C#N)=C[C@]2(c3ccccc3)c3n[nH]c(-c4cnn(-c5ccncc5)c4)c3CC[C@@H]12 [Example 159, (5aS,6S,9aR)-6-methyl-7-oxo-9a-phenyl-3-[1-(pyridin-4-yl)-1H-pyrazol-4-yl]-4,5,5a,6,7,9a-hexahydro-2H-benzo[g]indazole-8-carbonitrile] was tested, and the IC50 was 0.0338 µM.
C[C@@H]1C(=O)C(C#N)=C[C@]2(c3cccc(C(=O)Nc4ccccc4)c3)c3ncncc3CC[C@@H]12 [Example 95, 3-[(6aS,7S,10aR)-9-cyano-7-methyl-8-oxo-6,6a,7,8-tetrahydrobenzo[h]quinazolin-10a(5H)-yl]-N-phenylbenzamide] was tested, and the IC50 was 0.0155 µM.
C[C@@H]1C(=O)C(C#N)=C[C@]2(c3cccc(F)c3)c3ncncc3CC[C@@H]12 [Example 55, (6aS,7S,10aR)-10a-(3-fluorophenyl)-7-methyl-8-oxo-5,6,6a,7,8,10a-hexahydrobenzo[h]quinazoline-9-carbonitrile] gave an IC50 of 0.0114 µM.
Work on C[C@@H]1C(=O)C(C#N)=C[C@]2(c3ccccc3)c3nn(S(C)(=O)=O)cc3CC[C@@H]12 [Example 36, (5aS,6S,9aR)-6-methyl-2-(methylsulfonyl)-7-oxo-9a-phenyl-4,5,5a,6,7,9a-hexahydro-2H-benzo[g]indazole-8-carbonitrile] yielded an IC50 of 0.0693 µM.
Cc1nc(-c2cn[nH]c2)c2c(n1)[C@@]1(c3ccccc3)C=C(C#N)C(=O)[C@@H](C)[C@@H]1CC2 [Example 34, (6aS,7S,10aR)-2,7-dimethyl-8-oxo-10a-phenyl-4-(1H-pyrazol-4-yl)-5,6,6a,7,8,10a-hexahydrobenzo[h]quinazoline-9-carbonitrile] showed an IC50 of 0.00286 µM.
Cc1nc(-c2cncnc2)c2c(n1)[C@@]1(c3ccccc3)C=C(C(N)=O)C(=O)[C@@H](C)[C@@H]1CC2 [Example 130, (6aS,7S,10aR)-2,7-dimethyl-8-oxo-10a-phenyl-4-(pyrimidin-5-yl)-5,6,6a,7,8,10a-hexahydrobenzo[h]quinazoline-9-carboxamide] showed an IC50 greater than 3 µM.
C[C@@H]1C(=O)C(C#N)=C[C@]2(c3ccccc3)c3nn(C)c(-c4cccc(-c5ccc(C(N)=O)cc5)c4)c3CC[C@@H]12 [Example 171, 3′-[(5aS,6S,9aR)-8-cyano-2,6-dimethyl-7-oxo-9a-phenyl-4,5,5a,6,7,9a-hexahydro-2H-benzo[g]indazol-3-yl]biphenyl-4-carboxamide] gave an IC50 of 0.0139 µM.
COC(=O)c1ccc([C@]23C=C(C#N)C(=O)[C@@H](C)[C@@H]2CCc2c[nH]nc23)cc1 [Example 63, methyl 4-[(5aS,6S,9aR)-8-cyano-6-methyl-7-oxo-2,4,5,5a,6,7-hexahydro-9aH-benzo[g]indazol-9a-yl]benzoate] showed an IC50 of 0.0266 µM.
C[C@@H]1C(=O)C(C#N)=C[C@]2(c3ccccc3)c3n[nH]c(-c4ccc(N)nc4)c3CC[C@@H]12 [Example 106, (5aS,6S,9aR)-3-(6-aminopyridin-3-yl)-6-methyl-7-oxo-9a-phenyl-4,5,5a,6,7,9a-hexahydro-2H-benzo[g]indazole-8-carbonitrile] showed an IC50 of 0.00877 µM.
Compound Cc1nc(-c2ccc(O)nc2)c2c(n1)[C@@]1(c3ccccc3)C=C(C#N)C(=O)[C@@H](C)[C@@H]1CC2 [Example 133, (6aS,7S,10aR)-4-(6-hydroxypyridin-3-yl)-2,7-dimethyl-8-oxo-10a-phenyl-5,6,6a,7,8,10a-hexahydrobenzo[h]quinazoline-9-carbonitrile] has an IC50 of 0.311 µM.
Cc1nc(-c2ccc(O)cc2)c2c(n1)[C@@]1(c3ccccc3)C=C(C#N)C(=O)[C@@H](C)[C@@H]1CC2 [Example 108, (6aS,7S,10aR)-4-(4-hydroxyphenyl)-2,7-dimethyl-8-oxo-10a-phenyl-5,6,6a,7,8,10a-hexahydrobenzo[h]quinazoline-9-carbonitrile] showed an IC50 of 0.00363 µM.
